We go through 14 molecules from US11104648B2, “Pyrazole derivative” (Zhejiang Research Institute of Chemical Industry Co., Ltd., priority 2018, dated 2021).

Format in all cases: in vivo
Assay [1] concerns Eggs of Tetranychus Cinnabarinus. As to the kind of experiment: Activity assay of eggs of Tetranychus cinnabarinus (spray method, ovicidal). The settings on record: Tetranychus cinnabarinus, spray, read-out: ovicidal activity; for pest or weed control at 5 µg/mL: concentration 5 mg/L, non-incubated eggs counted as dead; for pest or weed control at 2 µg/mL: concentration 2 mg/L. The method, boiled down:
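Ovicidal spray test: compound dissolved in DMF, diluted with 1‰ Tween 80 (DMF ≤10%), sprayed on eggs laid during 24 h by females on broad bean leaves. Culture at 26±2° C, 70–80% RH, 16 h photoperiod; non-hatched eggs scored as dead when blank control hatched; three repeats.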

Assay [2] has as its system Tetranychus cinnabarinus Nymphs. As to the kind of experiment: Activity assay of Tetranychus cinnabarinus nymphs (spray on broad bean leaves). The note with it: 48 h, read-out: nymph-killing activity; for pest or weed control at 2.5 µg/mL: concentration 2.5 mg/L; for pest or weed control at 2 µg/mL: concentration 2 mg/L. The method, boiled down: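 Mortality, judged as no response to gentle touch, was scored 48 h after spraying Tetranychus cinnabarinus nymphs on broad bean leaves (eggs from females removed after 24 h). Test solutions: DMF-dissolved compound, ≤10% DMF, in 1‰ Tween 80; 26±2° C., 70%–80% RH, 16 h light; triplicate, blank control.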

For assay [3], the system named is adult Tetranychus cinnabarinus. The experiment in a line: Activity assay of adult Tetranychus cinnabarinus (whole-plant spray on bean seedlings). The settings on record: 48 h, read-out: adult mite-killing activity; for pest or weed control at 2.5 µg/mL: concentration 2.5 mg/L; for pest or weed control at 1.25 µg/mL: concentration 1.25 mg/L. The method, boiled down: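 Whole plants sprayed after adult mite inoculation and initial census, using compound dissolved in DMF and made up with 1‰ Tween 80 water (DMF not above 10%). Mortality derived from survivor counts at 48 h after treatment. Each treatment run in triplicate.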

As to `CCCCOC(=O)OCO/C(=C(/C#N)c1ccc(C(C)(C)C)cc1)c1cc(C)nn1CC` [Compound 552], the pest or weed control at 5 µg/mL in assay [1] is at least 90%. The pest or weed control at 2.5 µg/mL was at least 95% in assay [2] and at least 90% in assay [3].

Turning to `CCn1nc(C)cc1/C(OCOC(=O)OCC(C)C)=C(\C#N)c1ccc(C(C)(C)C)cc1` [Compound 553], in assay [1], the pest or weed control at 2 µg/mL was at least 90% and the pest or weed control at 5 µg/mL was at least 90%. For the same molecule, in assay [2], the pest or weed control at 2 µg/mL is at least 90% and the pest or weed control at 2.5 µg/mL was at least 95%. Besides, in assay [3], the pest or weed control at 1.25 µg/mL is at least 90% and the pest or weed control at 2.5 µg/mL was at least 90%.

For `CCn1nc(C)cc1/C(OCOC(=O)OCCC(C)C)=C(\C#N)c1ccc(C(C)(C)C)cc1` [Compound 554], in assay [1], the pest or weed control at 5 µg/mL is at least 90%. For the same molecule, the pest or weed control at 2.5 µg/mL is at least 95% in assay [2] and at least 90% in assay [3].

As for `CCCCCOC(=O)OCO/C(=C(/C#N)c1ccc(C(C)(C)C)cc1)c1cc(C)nn1CC` [Compound 556], the pest or weed control at 5 µg/mL in assay [1] was at least 90%. Further, the pest or weed control at 2.5 µg/mL in assay [2] was at least 95%; in assay [3] it was at least 90%.

Regarding `CCn1nc(C)cc1/C(OCOC(=O)OCCCl)=C(\C#N)c1ccc(C(C)(C)C)cc1` [Compound 558], in assay [1], the pest or weed control at 5 µg/mL was at least 90%. For the same molecule, the pest or weed control at 2.5 µg/mL in assay [2] was at least 95%; in assay [3], at least 90%.

With `CCn1nc(C)cc1/C(OCOC(=O)OCC(F)(F)F)=C(\C#N)c1ccc(C(C)(C)C)cc1` [Compound 563], the pest or weed control at 5 µg/mL in assay [1] was at least 90%. The figures for the pest or weed control at 2.5 µg/mL in assay [2] and in assay [3] were at least 95% and at least 90%, respectively.

As to `CCn1nc(C)cc1/C(OCOC(=O)OCCOC)=C(\C#N)c1ccc(C(C)(C)C)cc1` [Compound 564], the pest or weed control at 5 µg/mL in assay [1] was at least 90%. In addition, the pest or weed control at 2.5 µg/mL in assay [2] is at least 95%; in assay [3], at least 90%.

`CCn1nc(C)cc1/C(OCOC(=O)OCCSC)=C(\C#N)c1ccc(C(C)(C)C)cc1` [Compound 567]: the pest or weed control at 5 µg/mL in assay [1] was at least 90%. The pest or weed control at 2.5 µg/mL in assay [2] is at least 95%; in assay [3], at least 90%.

In the case of `C=CCOC(=O)OCO/C(=C(/C#N)c1ccc(C(C)(C)C)cc1)c1cc(C)nn1CC` [Compound 570], in assay [1], the pest or weed control at 2 µg/mL is at least 90% and the pest or weed control at 5 µg/mL is at least 90%. For the same molecule, in assay [2], the pest or weed control at 2 µg/mL is at least 90% and the pest or weed control at 2.5 µg/mL is at least 95%. For the same molecule, in assay [3], the pest or weed control at 1.25 µg/mL is at least 90% and the pest or weed control at 2.5 µg/mL was at least 90%.

On to `C#CCOC(=O)OCO/C(=C(/C#N)c1ccc(C(C)(C)C)cc1)c1cc(C)nn1CC` [Compound 572], for which the pest or weed control at 5 µg/mL in assay [1] is at least 90%. Also, the pest or weed control at 2.5 µg/mL in assay [2] is at least 95%; in assay [3], at least 90%.

For `CCn1nc(C)cc1/C(OCOC(=O)OCC(=O)OC)=C(\C#N)c1ccc(C(C)(C)C)cc1` [Compound 573], the pest or weed control at 5 µg/mL in assay [1] is at least 90%. The pest or weed control at 2.5 µg/mL was at least 95% in assay [2] and at least 90% in assay [3].

With `CCSC(=O)OCO/C(=C(/C#N)c1ccc(C(C)(C)C)cc1)c1cc(C)nn1CC` [Compound 576], in assay [1], the pest or weed control at 5 µg/mL was at least 90%. Further, the pest or weed control at 2.5 µg/mL in assay [2] is at least 95%; in assay [3], at least 90%.

For the molecule `CCn1nc(C)cc1/C(OCOC(=O)SCC(=O)OC)=C(\C#N)c1ccc(C(C)(C)C)cc1` [Compound 577], the pest or weed control at 5 µg/mL in assay [1] was at least 90%. In addition, the pest or weed control at 2.5 µg/mL in assay [2] was at least 95%; in assay [3] it was at least 90%.

With `CCn1nc(C)cc1/C(OC(C)OC(=O)OC)=C(\C#N)c1ccc(C(C)(C)C)cc1` (stereo not drawn) [Compound 579], in assay [1], the pest or weed control at 2 µg/mL was at least 90% and the pest or weed control at 5 µg/mL was at least 90%. In addition, in assay [2], the pest or weed control at 2 µg/mL was at least 90% and the pest or weed control at 2.5 µg/mL is at least 95%. For the same molecule, in assay [3], the pest or weed control at 1.25 µg/mL is at least 90% and the pest or weed control at 2.5 µg/mL is at least 90%.
